Test results taken from patent US5330992A, “1-cyclopropyl-4-pyridyl-quinolinones” (priority 1992, dated 1994).

What was measured:
Design in all cases: species or system mouse
[1] = In vivo antitumor assay, Mam16C/ADR; conditions: mouse, in vivo, drug route iv, qd 1 bid 2,3
From the text: (§1) Mice: Inbred: C3H/He and NCR-nu; and Hybrids: B6D2Fl (C57BL/6 females X DBA/2 males, CD2Fl (Balb/c females X DBS/2 males) and B6x C3fl (C57BL/6 x C3H) were bred at Wayne State University from strained obtained from the Frederick Cancer Research Facility, Frederick, Md. or purchased from commercial suppliers.
(§2) Tumors: Murine Tumor: P388 and an adriamycin-resistant (ADR) subline P388/ADR leukemia and the following transplantable solid tumors of mice were used for in Vivo testing: B16 melanoma (B16), pancreatic ductal adenocarcinoma No. 03 (Panc 03), colon adenocarcinoma No. 38 (colo 38), mammary ductal adenocarcinoma No. 16/C (Mam16) and an adriamycin-resistantsubline Mam16C/ADR. […]
(§3) Quantitative end points used assess antitumor activity included % Increased Life Span (% ILS), Tumor Cell Kill (Log10 kill), and Tumor Growth Inhibition (T/C). […]
(§4) Tumors were measured with a caliper once or twice weekly (as needed) until either tumors exceeded 1600 mg or cure was assured. […] When the control group tumors reached approximately 750-1500 mg in size (median of group), the median tumor weight of each group was determined (including zeros). […] The % T/C was calculated from the following formula for solid murine tumor models: [formula] where T and C are median tumor weights of the treatment and control groups, respectively. […]

[2] = system: adriamycin-resistant subline Mam16C/ADR; assay: In vivo antitumor assay, Mam16C/ADR; conditions: drug route iv, qd 1 bid 2,3
From the text: as §1, §2, §3, §4

[3] = system: mammary ductal adenocarcinoma No. 16/C (Mam16); assay: In vivo antitumor assay, Mam16C(sc); conditions: drug route iv
From the text: as §1
(§5) Tumors: Murine Tumor: P388 and an adriamycin-resistant (ADR) subline P388/ADR leukemia and the following transplantable solid tumors of mice were used for in Vivo testing: B16 melanoma (B16), pancreatic ductal adenocarcinoma No. 03 (Panc 03), colon adenocarcinoma No. 38 (colo 38), mammary ductal adenocarcinoma No. 16/C (Mam16) and an adriamycin-resistantsubline Mam16C/ADR. Human tumor: A single human tumor, mammary carcinoma MX-1 (MX1) was used for in vivo testing. All tumors are in the Developmental Therapeutics Program frozen tumor respository, maintained by the Biological Testing Branch, Frederick Md. Each has a detailed description, code identification number, and list of references at the National Tumor Repository. […]
as §3
(§6) The log10 cell kill was calculated from the following formula: [formula] where T-C is the tumor difference in the median day of death between the treated (T) and the control (C) groups and Td is the tumor doubling time (in days), the latter estimated from the best fit straight line from a log-linear growth plot of the control-group tumors in exponential growth. […]
as §4

[4] = In vivo antitumor assay, Mam16C(sc); conditions: mouse, in vivo, drug route iv, qd 1, bid 2,3
From the text: as §1, §5, §3, §6, §4

SMILES: Cc1cc(-c2c(F)cc3c(=O)c(Cc4c(O)cccc4O)cn(C4CC4)c3c2F)cc(C)n1 [Example 26, 1-Cyclopropyl-6,8-difluoro-7-[2,6-dimethyl-4-pyridinyl]-3-[2,6-dihydroxyphenylmethyl]-1,4-dihydroquinoline-4-one]
- MTD [1]: 30 mg/kg
- T/C % [2]: 71%
- T/C % ([3]; qd 1, bid 2,3): 28%
- LOG KILL ([3]; qd 1, bid 2,3, log10 cell kill): 0.90
- MTD [4]: 15 mg/kg
